We go through 7 molecules from paper PMC7725506, “Functional Diversification of SRSF Protein Kinase to Control Ubiquitin-Dependent Neurodevelopmental Signaling” (Developmental Cell, 2020).

The subject of one assay is RNF12 phospho-Ser214. In words: RNF12 SR-motif phosphorylation in mESCs, immunoblotting for RNF12 phospho-Ser214 and total RNF12. It counts as cell-based, mouse. The note with it: 10 μM, 4 h.
Assay [1] concerns Ser-Arg rich splicing factors (SRSF). In words: SRSF phosphorylation in mESCs, immunoblotting with phosphoepitope SR proteins antibody. The note with it: 10 μM, 4 h. It counts as cell-based, mouse.
Method: SRSF phosphorylation, SRPK1, SRPK2, and ERK1/2 levels were determined by immunoblotting. […] Quantification of SRSF phosphorylation (Right). Data represented as mean ± SEM (n = 4). […] Data represented as mean ± SEM (n = 3). One-way ANOVA followed by Tukey’s multiple comparisons test; confidence level 95%.
SDS-PAGE electrophoresis and immunoblotting was performed using standard methods. Cells were lysed in lysis buffer (20 mM Tris [pH 7.4], 150 mM NaCl, 1 mM EDTA, 1% NP-40 [v/v], 0.5% sodium deoxycholate [w/v], 10 mM β-glycerophosphate, 10 mM sodium pyrophosphate, 1 mM NaF, 2 mM Na3VO4, and Roche Complete Protease Inhibitor Cocktail Tablets). Phospho-specific antibodies were used at 1 μg/ml with 10 μg/ml of the corresponding non-phosphopeptide. After secondary antibody incubation, membranes were subjected to chemiluminescence detection with Immobilon Western Chemiluminescent HRP Substrate (Millipore) using a Gel-Doc XR+ System (Bio-Rad) or Infrared detection using a LI-COR Odyssey Clx system.
Assay [2] relates to Foxp1 exon 16-16b alternative splicing switch. In words: Foxp1 exon 16-16b incorporation in mESCs by quantitative RT-PCR. The conditions noted are these: 8 h. The class given is cell-based, mouse. How it is done: SRSF phosphorylation, SRPK1, SRPK2, and ERK1/2 levels were determined by immunoblotting. Expected positions of SRSFs that are not detected are shown in gray. Quantification of SRSF phosphorylation (Right). Data represented as mean ± SEM (n = 4). […] Neuro 2a is a control for exon 16b exclusion in differentiated cells (Bottom). Data represented as mean ± SEM (n = 3). […] Exon 16 inclusion: (^∗∗∗∗) p < 0.0001, Exon 16b inclusion: (^∗) p = 0.0164, p = 0.0485, and p = 0.0489 (left to right). Ratio exon 16b/16: (^∗∗∗∗) p < 0.0001, (^∗∗∗) p = 0.0003. (C) SRPK substrates predicted using ScanProsite and grouped according to UniProt functions. (D) RNF12 phosphorylation sites detected by mass-spectrometry. LZL, leucine-zipper like; NLS, nuclear localization signal; NES, nuclear export signal; RING, RING E3 ubiquitin ligase catalytic domain. (E) CMGC family kinase copy numbers in mESCs determined by quantitative proteomics and represented using Kinoviewer. (F) CMGC kinase (200 mU) phosphorylation of the RNF12 SR-motif in vitro was determined by immunoblotting for RNF12 phospho-Ser214 and total RNF12. […] Normalized RNF12 Ser214 phosphorylation is shown below. Data represented as mean ± SEM (n = 3). […] RNF12 SR-motif phosphorylation was analyzed by immunoblotting for RNF12 phospho-Ser214 and RNF12. SRPK1 and SRPK2 levels are shown as a loading control, Related to Figure S1; Tables S1 and S2.
Total RNA extraction and reverse transcription was performed as described. Quantitative PCR reactions using SsoFast EvaGreen Supermix (Bio-Rad) were performed in a CFX384 real time PCR system (Bio-Rad). Relative RNA expression was calculated through the ΔΔCt method and normalised to Gapdh expression. Data was analysed in Excel (Microsoft) and statistical analysis performed in GraphPad Prism v7.0c software (GraphPad Software Inc.).

The test system of another assay is RNF12 SR-motif. The assay is described as follows: RNF12 SR-motif phosphorylation in mESCs by phos-tag immunoblotting. The note with it: 10 μM, 4 h. It counts as cell-based, mouse. The source says:
RNF12 4xSA = S212A/S214A/S227A/S229A. (B) Rlim^−^/y mESCs were transfected with the indicated RNF12 constructs and lysates treated with λ-phosphatase and analyzed by phos-tag immunoblotting for RNF12. Unphosphorylated recombinant RNF12 is included as a control. […] RNF12 4xSA is included as an unphosphorylated control. […] (F) Phosphorylated peptides detected by mass spectrometry following in vitro phosphorylation of RNF12 by SRPK1. pS, phospho-serine. (G) Autoradiography of RNF12 WT or S212A/S214A/S227A/S229A (4xSA) following a radioactive kinase reaction with SRPK1, SRPK2, or SRPK3. RNF12 protein is detected by Coomassie staining. (H) Srpk1^+/+ and Srpk1^−/− mESCs were transfected with control or SRPK2 siRNA and RNF12 SR-motif phosphorylation analyzed by phos-tag immunoblotting for RNF12. SRPK2, SRPK1, RNF12, and ERK1/2 levels were determined by immunoblotting. Related to Figure S2; Tables S3 and S4.
All compounds were diluted in DMSO and mESCs treated with 10 μM inhibitor for 4 h prior lysis unless indicated otherwise. […] For proteasome inhibition mESCs were treated with 10 μM MG132 (Sigma Aldrich) for 6 h. All chemicals are listed in the Key Resource Table.
Phos-tag analyses were performed by loading protein samples containing 10 mM MnCl2 in 8% polyacrylamide gels containing 50 μM Phos-tag reagent (MRC-PPU reagents and services) and 0.1 mM MnCl2. After electrophoresis, gels were washed three times for 10 mins in Transfer buffer (48 mM Tris, 39 mM Glycine, 20% Methanol) supplemented with 20 mM EDTA. Proteins were then transferred to Nitrocellulose membranes, blocked and probed with the indicated antibodies. All protein signals were quantified using Image Studio (LI-COR Biosciences) or Image Lab software (Bio-Rad). Primary antibodies are listed in the Key Resource Table. […]
SR-motif phosphorylation of HA-immunoprecipitated RNF12 analysed by phos-tag immunoblotting.
HA-RNF12 levels are shown as a control. Fully phosphorylated (4-P) and unphosphorylated (0-P) RNF12 SR-motif is indicated by open (○) and closed (●) circles respectively.
Data are represented as mean ± S.D. (n=3). (C) RNF12 expressing mESCs were treated with 10 […]
immunoblotting. HA-RNF12 and ERK1/2 levels are shown as a control. (D) RNF12 expressing […]
5 h (+ wash-out). RNF12 phosphorylation was analysed via phos-tag immunoblotting. ERK1/2 levels are shown as a loading control. (E) Multiple Srpk1-/- and Srpk2-/- mESC clones were […]

For another assay, the target named is SRPK1 (Homo sapiens, UniProt Q96SB4). It counts as biochemical. The conditions noted are these: read-out: IC50, inhibition of RNF12 phosphorylation by SRPK1. The method, then:
Cells were lysed, and 1.5 mg of protein immunoprecipitated with 2 μg of SRPK1 or SRPK2 antibodies (BD Biosciences). Immunoprecipitates were then washed with lysis buffer supplemented with 500 mM NaCl and half of the sample was resuspended in loading buffer. The remainder was subjected to in vitro phosphorylation assay containing 0.5 μg RNF12 and 2 mM ATP in kinase buffer (50 mM Tris-HCl [pH 7.5], 0.1 mM EGTA, 10 mM MgCl2, 2 mM DTT) and incubated at 30°C for 30 min. […] For radioactive in vitro kinase assays, reactions were supplemented with 1 μCi γ-^32P ATP. Reactions were incubated at 30°C for 30 min in presence or absence of inhibitor as indicated and samples subjected to polyacrylamide electrophoresis and immunoblot or Coomassie blue staining and signal detected via ECL, infrared detection or autoradiography.
Supplemental Figure Legends
(Related to Figure 1). (A) Wild-type (WT) mESCs were analysed for protein copy number by absolute quantitative proteomics. […]
Data are represented as mean ± S.E.M. (n=3). […] ND = not detected. (B) Inhibition of RNF12 phosphorylation in vitro by SRPK1 and SRPK2 in the presence of varying concentrations of the indicated SRPK inhibitors was determined by immunoblotting for RNF12 phospho-Ser214 (Left). […] Immunoblots were quantified to generate SRPK inhibitor dose-response curves for inhibition of RNF12 phosphorylation by SRPK1 and SRPK2 in vitro (Right). […]

The next assay has as its system RNF12 4xSA-KI mESCs. The assay is described as follows: RNF12 localization by immunofluorescence in RNF12 4xSA-KI mESCs. The conditions noted are these: 30 nM, 6 h. It counts as cell-based, mouse. How it is done: Figure 3 SRPK Phosphorylation of RNF12 Regulates Nuclear Anchoring and E3 Ubiquitin Ligase Activity (A) RNF12 localization in wild-type knockin (WT-KI), SR-motif phosphorylation site knockin (4xSA-KI), or SR-motif deletion (ΔSR-KI) mESCs was determined by immunofluorescence. Scalebar: 20 μm (Left). Quantification of the Nucleus/cytosol fluorescence intensity ratio (Right). Data represented as mean ± SEM. […] (^∗∗∗∗) p < 0.0001. (B) RNF12 4xSA-KI mESCs were treated with 30 nM leptomycin B for 6 h and RNF12 localization analyzed by immunofluorescence. Scale bar: 20 μm (Top). Quantification of the nucleus/cytosol fluorescence intensity ratio (Bottom). […] (^∗∗∗∗) p < 0.0001. (C) FLAG-tagged SRPK1 and SRPK2 were expressed in mESCs and localization of SRPKs and RNF12 analyzed by immunofluorescence. Scale bar: 20 μm (Left). Quantification of the cytosol/nucleus fluorescence intensity ratio (Right). […] (^∗∗∗∗) p < 0.0001. […] RNF12, REX1 and ERK1/2 were detected by immunoblotting. (^∗) indicates non-specific signal. (E) REX1 levels were analyzed in RNF12 WT-KI, 4xSA-KI, ΔSR-KI, and W576Y-KI mESCs by immunoprecipitation followed by immunoblotting. ERK1/2 levels were detected by immunoblotting. (F) REX1 half-life was determined in RNF12 WT-KI, 4xSA-KI, ΔSR-KI, and W576Y-KI mESCs by immunoblotting. (Top) quantification of HA-REX1 protein levels normalized to ERK1/2 and calculated protein half-life (Bottom). […]

SRPK1, sequence (Q96SB4 whole entry): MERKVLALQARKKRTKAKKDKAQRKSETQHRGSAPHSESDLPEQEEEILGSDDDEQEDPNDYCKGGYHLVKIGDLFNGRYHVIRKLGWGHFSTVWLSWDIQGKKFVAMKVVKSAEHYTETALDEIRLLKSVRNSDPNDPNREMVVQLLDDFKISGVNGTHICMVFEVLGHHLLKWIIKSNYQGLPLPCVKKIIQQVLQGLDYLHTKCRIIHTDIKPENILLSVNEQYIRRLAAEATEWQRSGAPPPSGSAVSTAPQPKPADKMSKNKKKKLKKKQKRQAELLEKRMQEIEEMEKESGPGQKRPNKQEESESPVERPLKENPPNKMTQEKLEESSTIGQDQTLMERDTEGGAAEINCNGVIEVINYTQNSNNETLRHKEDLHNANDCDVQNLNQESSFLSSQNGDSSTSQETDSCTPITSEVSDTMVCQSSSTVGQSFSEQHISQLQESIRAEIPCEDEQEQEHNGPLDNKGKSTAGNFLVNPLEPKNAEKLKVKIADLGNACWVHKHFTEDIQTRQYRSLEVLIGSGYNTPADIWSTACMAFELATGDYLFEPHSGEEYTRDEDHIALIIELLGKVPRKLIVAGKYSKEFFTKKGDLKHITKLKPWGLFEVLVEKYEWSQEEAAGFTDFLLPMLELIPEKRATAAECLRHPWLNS

As for `CN1CCN(C(=O)C(C)(C)c2ccc(C(=O)Nc3cn4cc(-c5ccncc5)ccc4n3)cc2)CC1` [CLK-IN-T3], the “RNF12 phospho-Ser214/total ratio” value with RNF12 phospho-Ser214 was “little impact”. For the same molecule, the SRSF phosphorylation result in assay [1] is “widespread, robust inhibition”. The “Foxp1 exon 16b-exon 16 inclusion” value in assay [2] (1 μM) is “promotes exon 16b inclusion while suppressing inclusion of exon 16”. The “RNF12 SR-motif phosphorylation (phos-tag)” value with RNF12 SR-motif is recorded as “minor effect”.
Turning to `COc1ccc2c(C)nc(Nc3nc(C)c(C)c(=O)[nH]3)nc2c1` [Madrasin], the “Foxp1 exon 16b-exon 16 inclusion” value in assay [2] (10 μM) is “promotes inclusion of exon 16b over exon 16”.
On to `O=C1NC(=NCc2cccs2)S/C1=C\c1ccc2ncccc2c1` [RO-3306], for which the “RNF12 phospho-Ser214/total ratio” value with RNF12 phospho-Ser214 was “some effect”. Further, the “RNF12 SR-motif phosphorylation (phos-tag)” value with RNF12 SR-motif is “little impact”.
For the molecule `O=C(Nc1cc(C(F)(F)F)ccc1N1CCN(Cc2ccccn2)CC1)c1ccc(-c2ccncc2)o1` [SPHINX31], the “RNF12 SR-motif phosphorylation (phos-tag)” value in the assay with RNF12 SR-motif is reported as “minor effect”.
As to `O=C(Nc1cc(C(F)(F)F)ccc1N1CCCCC1)c1ccncc1` [SRPIN340], the IC50 on SRPK1 amounted to 4.7 µM.
Take `CN1CC[C@H](c2c(O)cc(O)c3c(=O)cc(-c4ccccc4Cl)oc23)[C@H](O)C1` [flavopiridol]: the “RNF12 phospho-Ser214/total ratio” value with RNF12 phospho-Ser214 is “some effect”. Further, the “RNF12 SR-motif phosphorylation (phos-tag)” value with RNF12 SR-motif is recorded as “little impact”.
As to `CCC(=C/[C@H](C)C/C=C/C(C)=C/[C@@H](C)C(=O)[C@@H](C)[C@H](O)[C@@H](C)C/C(C)=C/C(=O)O)/C=C/[C@@H]1OC(=O)C=C[C@@H]1C` [leptomycin B], in the assay with RNF12 4xSA-KI mESCs, the “RNF12 4xSA localization” value is “primarily nuclear” and the “nucleus/cytosol ratio of RNF12 4xSA (fluorescence intensity, mean)” value is recorded as 4.08.
